# Data from article PMC6437697 (Journal of Medicinal Chemistry, 2019).
# What was measured:
# Assay in all cases: KINOMEscan
# Assay type in all cases: binding
# [1] = target: T1, ABL1(E255K)-phosphorylated (Homo sapiens, UniProt P00519, E255K); conditions: read-out: % control activity remaining
# T1 construct: purchased Eurofins DiscoverX KINOMEscan
# CAMK2A = target: T2, CAMK2A (Homo sapiens, UniProt Q9UQM7); conditions: read-out: % control activity remaining
# T2 construct: purchased Eurofins DiscoverX KINOMEscan
# DDR1 = target: T3, DDR1 (Homo sapiens, UniProt Q08345); conditions: read-out: % control activity remaining
# T3 construct: purchased Eurofins DiscoverX KINOMEscan
# EGFR(S752-I759del) = target: T4, EGFR(S752-I759del) (Homo sapiens, UniProt P00533, DEL752-759); conditions: read-out: % control activity remaining
# T4 construct: purchased Eurofins DiscoverX KINOMEscan
# EPHB4 = target: T5, EPHB4 (Homo sapiens, UniProt P54760); conditions: read-out: % control activity remaining
# T5 construct: purchased Eurofins DiscoverX KINOMEscan
# T5 sequence (P54760 16-987): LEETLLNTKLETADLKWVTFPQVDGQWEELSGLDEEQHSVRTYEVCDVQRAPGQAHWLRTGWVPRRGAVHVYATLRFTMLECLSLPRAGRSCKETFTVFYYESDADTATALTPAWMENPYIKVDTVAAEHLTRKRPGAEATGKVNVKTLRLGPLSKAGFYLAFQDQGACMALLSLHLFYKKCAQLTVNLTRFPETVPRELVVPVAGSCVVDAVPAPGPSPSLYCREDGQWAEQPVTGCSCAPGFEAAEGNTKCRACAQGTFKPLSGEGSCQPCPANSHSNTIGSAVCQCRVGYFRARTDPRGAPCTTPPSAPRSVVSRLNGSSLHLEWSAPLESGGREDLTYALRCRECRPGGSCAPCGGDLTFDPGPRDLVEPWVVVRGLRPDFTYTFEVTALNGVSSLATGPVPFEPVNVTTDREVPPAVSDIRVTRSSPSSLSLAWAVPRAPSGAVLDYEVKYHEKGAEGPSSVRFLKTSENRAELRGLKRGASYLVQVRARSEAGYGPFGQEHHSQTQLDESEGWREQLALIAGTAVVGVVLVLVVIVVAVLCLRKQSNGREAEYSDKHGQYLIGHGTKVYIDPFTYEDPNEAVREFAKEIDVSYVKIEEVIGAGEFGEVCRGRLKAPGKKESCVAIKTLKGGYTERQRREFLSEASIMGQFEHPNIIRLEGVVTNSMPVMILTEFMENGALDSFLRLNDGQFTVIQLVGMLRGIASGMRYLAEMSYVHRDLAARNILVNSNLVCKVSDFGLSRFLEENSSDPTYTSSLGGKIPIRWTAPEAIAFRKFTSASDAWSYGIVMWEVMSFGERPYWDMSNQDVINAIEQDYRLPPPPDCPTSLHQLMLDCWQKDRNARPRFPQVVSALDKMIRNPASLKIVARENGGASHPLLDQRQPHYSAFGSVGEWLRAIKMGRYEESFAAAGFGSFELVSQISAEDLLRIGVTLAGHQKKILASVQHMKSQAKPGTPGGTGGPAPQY
# INSR = target: T6, INSR (Homo sapiens, UniProt P06213); conditions: read-out: % control activity remaining
# T6 construct: purchased Eurofins DiscoverX KINOMEscan
# JNK3 = target: T7, JNK3 (Homo sapiens, UniProt P53779); conditions: read-out: % control activity remaining
# T7 construct: purchased Eurofins DiscoverX KINOMEscan
# NDR2 = target: T8, NDR2 (Homo sapiens, UniProt Q9Y2H1); conditions: read-out: % control activity remaining
# T8 construct: purchased Eurofins DiscoverX KINOMEscan
# NEK6 = target: T9, NEK6 (Homo sapiens, UniProt Q9HC98); conditions: read-out: % control activity remaining
# T9 construct: purchased Eurofins DiscoverX KINOMEscan
# PCTK2 = target: T10, PCTK2 (Homo sapiens, UniProt Q00537); conditions: for remaining binding at 1 µM: read-out: % control activity remaining
# T10 construct: purchased Eurofins DiscoverX KINOMEscan
# PHKG2 = target: T11, PHKG2 (Homo sapiens, UniProt P15735); conditions: read-out: % control activity remaining
# T11 construct: purchased Eurofins DiscoverX KINOMEscan
# T11 sequence (P15735 1-406): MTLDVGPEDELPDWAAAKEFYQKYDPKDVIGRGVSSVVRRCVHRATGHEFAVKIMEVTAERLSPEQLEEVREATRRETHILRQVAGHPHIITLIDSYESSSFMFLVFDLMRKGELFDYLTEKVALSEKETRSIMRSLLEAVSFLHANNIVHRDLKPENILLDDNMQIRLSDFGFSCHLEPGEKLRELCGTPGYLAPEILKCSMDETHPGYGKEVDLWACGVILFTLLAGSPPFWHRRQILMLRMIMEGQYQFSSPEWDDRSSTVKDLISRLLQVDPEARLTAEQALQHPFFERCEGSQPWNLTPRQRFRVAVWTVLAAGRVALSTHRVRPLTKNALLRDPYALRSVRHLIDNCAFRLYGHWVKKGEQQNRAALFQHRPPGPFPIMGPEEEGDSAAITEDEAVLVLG
# RIPK4 = target: T12, RIPK4 (Homo sapiens, UniProt P57078); conditions: read-out: % control activity remaining
# T12 construct: purchased Eurofins DiscoverX KINOMEscan
# T12 sequence (P57078 1-832): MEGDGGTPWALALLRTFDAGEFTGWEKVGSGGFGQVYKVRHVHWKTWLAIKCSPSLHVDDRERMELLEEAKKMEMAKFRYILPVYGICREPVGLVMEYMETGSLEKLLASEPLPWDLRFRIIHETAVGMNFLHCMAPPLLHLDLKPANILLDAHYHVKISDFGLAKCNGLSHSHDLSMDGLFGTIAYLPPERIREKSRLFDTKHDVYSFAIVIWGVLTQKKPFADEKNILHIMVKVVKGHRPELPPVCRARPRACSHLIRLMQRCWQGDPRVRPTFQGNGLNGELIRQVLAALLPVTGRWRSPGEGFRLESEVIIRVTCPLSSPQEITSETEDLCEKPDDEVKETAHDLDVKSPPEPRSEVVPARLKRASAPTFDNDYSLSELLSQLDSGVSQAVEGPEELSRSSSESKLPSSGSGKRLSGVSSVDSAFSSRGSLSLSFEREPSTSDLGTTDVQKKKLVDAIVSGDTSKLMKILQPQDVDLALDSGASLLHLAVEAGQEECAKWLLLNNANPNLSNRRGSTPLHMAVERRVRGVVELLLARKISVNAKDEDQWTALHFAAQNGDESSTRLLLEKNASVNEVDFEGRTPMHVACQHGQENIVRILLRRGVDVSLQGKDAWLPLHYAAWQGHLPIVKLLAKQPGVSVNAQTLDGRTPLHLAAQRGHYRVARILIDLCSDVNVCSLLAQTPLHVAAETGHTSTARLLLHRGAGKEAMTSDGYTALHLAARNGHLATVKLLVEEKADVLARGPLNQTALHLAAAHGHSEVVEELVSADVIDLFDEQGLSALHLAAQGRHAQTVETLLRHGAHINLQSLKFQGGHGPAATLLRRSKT
# SRPK1 = target: T13, SRPK1 (Homo sapiens, UniProt Q96SB4); conditions: read-out: % control activity remaining
# T13 construct: purchased Eurofins DiscoverX KINOMEscan
# YANK2 = target: T14, YANK2 (Homo sapiens, UniProt Q9NY57); conditions: read-out: % control activity remaining
# T14 construct: purchased Eurofins DiscoverX KINOMEscan
# T14 sequence (Q9NY57 whole entry): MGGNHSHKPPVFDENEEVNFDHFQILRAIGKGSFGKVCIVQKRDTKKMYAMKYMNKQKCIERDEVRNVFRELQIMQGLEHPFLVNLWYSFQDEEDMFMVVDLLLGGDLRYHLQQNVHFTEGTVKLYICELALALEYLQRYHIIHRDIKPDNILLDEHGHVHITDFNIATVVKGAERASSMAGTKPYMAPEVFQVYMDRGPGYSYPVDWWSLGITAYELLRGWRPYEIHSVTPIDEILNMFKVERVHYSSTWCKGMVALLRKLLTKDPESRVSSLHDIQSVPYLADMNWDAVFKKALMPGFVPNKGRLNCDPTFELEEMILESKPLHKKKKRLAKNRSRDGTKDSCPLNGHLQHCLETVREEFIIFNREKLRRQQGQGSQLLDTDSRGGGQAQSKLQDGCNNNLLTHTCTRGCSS
# T6 sequence (P06213 28-1382): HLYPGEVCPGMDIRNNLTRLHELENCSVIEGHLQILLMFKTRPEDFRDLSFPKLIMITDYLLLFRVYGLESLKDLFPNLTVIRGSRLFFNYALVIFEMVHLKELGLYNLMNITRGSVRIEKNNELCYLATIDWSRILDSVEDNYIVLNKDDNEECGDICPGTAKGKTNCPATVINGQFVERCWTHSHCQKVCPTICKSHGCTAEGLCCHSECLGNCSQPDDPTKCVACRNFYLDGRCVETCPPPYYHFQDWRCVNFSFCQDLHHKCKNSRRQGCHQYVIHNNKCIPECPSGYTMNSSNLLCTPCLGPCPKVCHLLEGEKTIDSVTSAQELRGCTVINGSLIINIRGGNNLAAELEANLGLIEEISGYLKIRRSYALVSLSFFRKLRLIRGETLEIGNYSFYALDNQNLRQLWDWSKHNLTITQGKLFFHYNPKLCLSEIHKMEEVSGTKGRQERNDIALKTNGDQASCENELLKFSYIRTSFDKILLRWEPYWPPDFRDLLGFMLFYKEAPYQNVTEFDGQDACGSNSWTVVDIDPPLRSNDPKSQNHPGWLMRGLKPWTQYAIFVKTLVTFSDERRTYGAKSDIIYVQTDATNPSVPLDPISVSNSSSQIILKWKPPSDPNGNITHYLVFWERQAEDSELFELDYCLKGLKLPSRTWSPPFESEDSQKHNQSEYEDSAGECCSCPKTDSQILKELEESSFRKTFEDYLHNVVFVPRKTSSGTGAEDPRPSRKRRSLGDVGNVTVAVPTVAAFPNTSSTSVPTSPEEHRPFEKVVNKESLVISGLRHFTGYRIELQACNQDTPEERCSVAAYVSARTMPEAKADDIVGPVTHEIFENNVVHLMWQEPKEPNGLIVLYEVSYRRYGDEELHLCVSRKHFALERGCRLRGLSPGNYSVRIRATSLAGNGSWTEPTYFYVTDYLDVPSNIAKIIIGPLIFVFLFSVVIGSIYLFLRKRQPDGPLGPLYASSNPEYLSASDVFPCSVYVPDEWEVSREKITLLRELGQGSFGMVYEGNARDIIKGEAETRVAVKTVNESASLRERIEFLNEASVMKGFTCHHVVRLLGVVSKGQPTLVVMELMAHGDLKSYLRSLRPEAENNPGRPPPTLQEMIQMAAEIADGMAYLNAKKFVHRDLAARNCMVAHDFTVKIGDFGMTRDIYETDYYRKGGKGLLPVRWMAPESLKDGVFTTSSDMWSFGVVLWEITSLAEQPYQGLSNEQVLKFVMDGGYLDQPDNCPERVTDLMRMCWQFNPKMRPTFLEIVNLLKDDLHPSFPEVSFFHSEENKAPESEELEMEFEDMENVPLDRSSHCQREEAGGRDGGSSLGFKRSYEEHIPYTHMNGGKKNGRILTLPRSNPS
# T10 sequence (Q00537 whole entry): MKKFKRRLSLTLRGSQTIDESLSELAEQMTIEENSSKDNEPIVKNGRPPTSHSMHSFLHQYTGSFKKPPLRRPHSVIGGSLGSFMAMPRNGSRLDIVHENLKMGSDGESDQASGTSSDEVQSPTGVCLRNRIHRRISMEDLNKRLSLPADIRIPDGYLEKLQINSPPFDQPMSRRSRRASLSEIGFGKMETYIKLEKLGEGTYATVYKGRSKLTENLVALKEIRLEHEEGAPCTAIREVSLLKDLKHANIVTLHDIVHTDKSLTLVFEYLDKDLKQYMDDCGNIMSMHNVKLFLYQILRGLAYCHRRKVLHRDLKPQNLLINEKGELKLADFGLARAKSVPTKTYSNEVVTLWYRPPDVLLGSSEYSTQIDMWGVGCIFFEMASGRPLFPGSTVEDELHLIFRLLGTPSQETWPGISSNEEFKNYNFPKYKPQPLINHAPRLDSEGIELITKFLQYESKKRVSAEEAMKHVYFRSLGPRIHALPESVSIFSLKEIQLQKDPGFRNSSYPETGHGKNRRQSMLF
# T1 sequence (P00519 whole entry E255K): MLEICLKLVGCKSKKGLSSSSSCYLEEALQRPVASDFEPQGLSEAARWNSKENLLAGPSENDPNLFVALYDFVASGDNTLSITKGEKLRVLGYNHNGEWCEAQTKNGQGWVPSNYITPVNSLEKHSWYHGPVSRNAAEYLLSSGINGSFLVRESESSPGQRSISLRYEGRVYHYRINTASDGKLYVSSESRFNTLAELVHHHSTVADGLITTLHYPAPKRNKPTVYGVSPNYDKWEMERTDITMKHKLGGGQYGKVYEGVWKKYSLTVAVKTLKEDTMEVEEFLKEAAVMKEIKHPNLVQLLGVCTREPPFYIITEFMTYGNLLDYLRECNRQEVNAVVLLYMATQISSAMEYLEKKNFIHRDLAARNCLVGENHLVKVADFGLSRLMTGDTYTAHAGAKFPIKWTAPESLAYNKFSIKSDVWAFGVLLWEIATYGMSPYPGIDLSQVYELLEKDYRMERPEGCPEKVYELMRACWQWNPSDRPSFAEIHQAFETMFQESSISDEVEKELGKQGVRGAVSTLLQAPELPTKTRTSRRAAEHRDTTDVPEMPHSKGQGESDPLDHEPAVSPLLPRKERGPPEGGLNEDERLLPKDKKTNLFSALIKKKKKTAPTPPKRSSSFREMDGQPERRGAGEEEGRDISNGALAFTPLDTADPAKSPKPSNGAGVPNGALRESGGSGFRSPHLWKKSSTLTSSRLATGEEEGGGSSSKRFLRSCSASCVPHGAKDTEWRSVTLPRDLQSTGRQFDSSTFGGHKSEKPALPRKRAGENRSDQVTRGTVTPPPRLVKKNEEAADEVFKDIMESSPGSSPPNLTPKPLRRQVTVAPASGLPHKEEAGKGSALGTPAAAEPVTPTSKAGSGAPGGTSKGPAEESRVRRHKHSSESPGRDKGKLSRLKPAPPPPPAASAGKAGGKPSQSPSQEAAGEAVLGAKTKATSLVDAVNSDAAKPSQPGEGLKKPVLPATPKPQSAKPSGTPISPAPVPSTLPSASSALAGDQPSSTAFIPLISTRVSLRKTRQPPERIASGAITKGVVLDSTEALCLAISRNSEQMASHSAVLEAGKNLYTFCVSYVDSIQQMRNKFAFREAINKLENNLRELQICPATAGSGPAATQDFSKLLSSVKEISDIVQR
# T3 sequence (Q08345 19-913): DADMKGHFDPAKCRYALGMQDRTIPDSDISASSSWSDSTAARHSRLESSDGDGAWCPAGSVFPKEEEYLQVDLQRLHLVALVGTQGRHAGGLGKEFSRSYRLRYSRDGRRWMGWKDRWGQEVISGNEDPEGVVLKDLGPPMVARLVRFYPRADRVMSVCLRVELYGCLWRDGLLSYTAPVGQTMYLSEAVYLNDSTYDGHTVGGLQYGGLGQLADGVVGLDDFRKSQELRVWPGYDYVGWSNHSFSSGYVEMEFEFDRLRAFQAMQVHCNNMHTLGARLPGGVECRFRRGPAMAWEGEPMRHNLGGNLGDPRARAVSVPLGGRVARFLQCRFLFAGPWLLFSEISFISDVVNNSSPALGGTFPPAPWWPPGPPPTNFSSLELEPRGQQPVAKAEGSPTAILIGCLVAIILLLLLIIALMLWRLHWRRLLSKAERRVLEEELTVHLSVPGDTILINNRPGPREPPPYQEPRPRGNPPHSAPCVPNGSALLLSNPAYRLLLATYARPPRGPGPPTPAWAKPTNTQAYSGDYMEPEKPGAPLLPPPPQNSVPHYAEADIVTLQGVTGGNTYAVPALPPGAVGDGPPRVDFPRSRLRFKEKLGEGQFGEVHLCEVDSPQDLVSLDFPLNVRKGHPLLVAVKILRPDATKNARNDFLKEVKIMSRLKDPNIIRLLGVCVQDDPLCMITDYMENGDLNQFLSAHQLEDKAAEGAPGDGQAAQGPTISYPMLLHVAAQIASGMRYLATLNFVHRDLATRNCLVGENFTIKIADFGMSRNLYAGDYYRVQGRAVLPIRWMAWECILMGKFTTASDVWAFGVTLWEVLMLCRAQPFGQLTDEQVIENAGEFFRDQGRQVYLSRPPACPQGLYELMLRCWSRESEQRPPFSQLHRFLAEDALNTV
# T9 sequence (Q9HC98 whole entry): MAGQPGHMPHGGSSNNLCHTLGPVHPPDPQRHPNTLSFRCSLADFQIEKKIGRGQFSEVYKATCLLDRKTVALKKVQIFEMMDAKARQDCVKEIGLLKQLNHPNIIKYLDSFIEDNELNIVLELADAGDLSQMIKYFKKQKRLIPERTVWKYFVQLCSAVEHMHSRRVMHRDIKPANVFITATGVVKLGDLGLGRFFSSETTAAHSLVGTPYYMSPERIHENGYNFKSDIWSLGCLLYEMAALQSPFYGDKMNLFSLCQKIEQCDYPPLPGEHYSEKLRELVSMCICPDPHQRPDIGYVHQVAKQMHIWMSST
# T4 sequence (P00533 with tags, fused parts or gaps DEL752-759 limits assumed): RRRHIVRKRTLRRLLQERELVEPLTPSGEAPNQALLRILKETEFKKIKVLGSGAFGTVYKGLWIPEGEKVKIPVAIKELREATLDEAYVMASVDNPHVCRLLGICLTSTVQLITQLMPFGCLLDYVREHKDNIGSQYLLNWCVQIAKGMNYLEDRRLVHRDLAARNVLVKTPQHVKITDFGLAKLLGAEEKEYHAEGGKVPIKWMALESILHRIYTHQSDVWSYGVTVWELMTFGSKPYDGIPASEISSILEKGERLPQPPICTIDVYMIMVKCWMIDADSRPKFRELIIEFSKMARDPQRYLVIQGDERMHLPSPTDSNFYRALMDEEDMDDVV
Structure (SMILES),remaining binding at 1 µM [1] [%],remaining binding at 1 µM (CAMK2A) [%],remaining binding at 1 µM (DDR1) [%],remaining binding at 1 µM (EGFR(S752-I759del)) [%],remaining binding at 1 µM (EPHB4) [%],remaining binding at 1 µM (INSR) [%],remaining binding at 1 µM (JNK3) [%],remaining binding at 1 µM (NDR2) [%],remaining binding at 1 µM (NEK6) [%],remaining binding at 1 µM (PCTK2) [%],remaining binding at 1 µM (PHKG2) [%],remaining binding at 1 µM (RIPK4) [%],remaining binding at 1 µM (SRPK1) [%],remaining binding at 1 µM (YANK2) [%],"inhibition at 1 µM (PCTK2; read-out: Probe binding inhibited, 1 μM) [%]"
"Clc1cc(NCC2CC2)c2ncc(-c3ccc4[nH]ncc4c3)n2n1 [compound 2, 6-Chloro-N-(cyclopropylmethyl)-3-(1H-indazol-5-yl)imidazo[1,2-b]pyridazin-8-amine]",100,100,22,94,79,99,89,94,99,98,85,96,100,94,
O=C(CN1CCOCC1)N[C@H]1CC[C@H](Nc2cc(Cl)nn3c(-c4ccc5[nH]ncc5c4)cnc23)CC1 [compound 26],56,47,100,95,95,91,79,94,100,66,29,95,79,100,
"CN1CCC(CNc2cc(Cl)nn3c(-c4cc5nc(Nc6ccccc6)[nH]c5cc4F)cnc23)CC1 [compound 31, 6-Chloro-3-(6-fluoro-2-(phenylamino)-1H-benzo[d]imidazol-5-yl)-N-((1-methylpiperidin-4-yl)methyl)imidazo[1,2-b]pyridazin-8-amine]",86,99,96,97,100,97,99,100,96,2.7,98,98,84,100,97
